Assay results as given in the RepoRT retention time repository (doi:10.1021/acs.analchem.2c02893).

Assay: RP, Thermo Scientific Acclaim RSLC 120 C18, 100 × 2.1 mm, 2.2 µm, 30 °C, 0.2 mL/min, estimated dead time 1.1 min; A: 90% water + 10% methanol + 0.01% formic acid + 5 mM ammonium formate, pH 3.61; B: methanol + 0.01% formic acid + 5 mM ammonium formate, pH 3.61; gradient (min/%B) 0/1 1/1 2/39 13/99.9 15/99.9 15.1/1 20.1/1
Settings: stereoisomer not certain

Structure (SMILES)	LC retention time [min]
CN1CCN(C2=Nc3ccccc3Sc3ccc(Cl)cc32)CC1 [Clothiapine]	8.96
CN1CCN2c3ncccc3Cc3ccccc3C2C1 (stereo unspecified) [Mirtazapine]	5.29
Cc1nnc2n1-c1ccc(Br)cc1C(c1ccccn1)=NC2 [Pyrazolam]	6.27
CCCCn1cc(C(=O)c2cccc3ccccc23)c2cc(O)ccc21 [JWH-073-M-5-OH-Ind]	11.3
COc1ccc(Oc2ccc(NC(=O)N(C)C)cc2)cc1 [Difenoxuron]	8.43
COCc1c(C(C)C)nc(C(C)C)c(C=CC(O)CC(O)CC(=O)O)c1-c1ccc(F)cc1 (stereo unspecified) [Cerivastatin]	11.6
Nc1ccc(S(=O)(=O)Nc2ccccn2)cc1 [Sulfapyridine]	3.8
Nc1nc(N)c2nc(-c3ccccc3)c(N)nc2n1 [Triamterene]	4.68
CCCCNC(=O)OCC#CI [3-Iodopropynyl butylcarbamate]	8.05
COC(=O)C(C)Oc1cc(Cl)c(Cl)cc1Cl (stereo unspecified) [Fenoprop-methylester  (Silvex-methyester)]	11.5
O=C1c2ccccc2C(=O)C1C(=O)C(c1ccccc1)c1ccc(Cl)cc1 (stereo unspecified) [Chlorophacinone]	9.74
CC(C)NC(=O)N1CC(=O)N(c2cc(Cl)cc(Cl)c2)C1=O [Iprodione]	10.5
CCCC(C(=O)OCCN(CC)CC)(c1ccccc1)c1ccccc1 [Proadifen]	9.41
c1ccc(CN2CCNCC2)cc1 [Benzylpiperazine]	4.23
NC12CC3CC(CC(C3)C1)C2 [Amantadine]	4.86
Cc1ncc2n1-c1ccc(Cl)cc1C(c1ccccc1F)=NC2 [Midazolam]	8.63
CN(C)C(=O)Nc1ccccc1 [Fenuron]	5.12
CNC(=O)ON=C(C)SC [Methomyl]	4.16
O=S1OCC2C(CO1)C1(Cl)C(Cl)=C(Cl)C2(Cl)C1(Cl)Cl (stereo unspecified) [Endosulfan]	11.2
O=C1CN(N=Cc2ccc([N+](=O)[O-])o2)C(=O)N1 [Nitrofurantoin]	4.14
CCCc1nn(C)c2c(=O)[nH]c(-c3cc(C(=O)CN4CCN(C)CC4)ccc3OCC)nc12 [Acetildenafil-Nor]	6.99

Structure (SMILES)	LC retention time [min]
CC(C)(Oc1ccc(CCNC(=O)c2ccc(Cl)cc2)cc1)C(=O)O [Bezafibrate]	8.77
CCOP(=S)(OCC)Oc1ccc(S(C)(=O)=O)cc1 [Fensulfothion-sulfon]	8.48
COc1cc(CC(C)N)c(OC)cc1C (stereo unspecified) [DOM (2.5-Dimethoxy-4-methylamphetamine)]	5.83
CC(C)[N+]1(C)C2CCC1CC(OC(=O)C(CO)c1ccccc1)C2 (stereo unspecified) [Ipratropium]	4.17
Cc1cc(NS(=O)(=O)c2ccc(N)cc2)no1 [Sulfamethoxazole]	4.6
CN(C)C(=O)OC1N=C(c2ccccc2)c2cc(Cl)ccc2N(C)C1=O (stereo unspecified) [Camazepam]	10
CCCCCc1cc(O)c2c(c1)OC(C)(C)c1ccc(C)cc1-2 [Cannabinol]	13.7
CCOc1c(N)c2c(c(OCC)c1OCC)C(C1c3c(cc4c(c3OC)OCO4)CCN1C)OC2=O (stereo unspecified) [Tritoqualine]	12
CCC1OC(=O)C(C)C(=O)C(C)C(OC2OC(C)CC(N(C)C)C2O)C(C)(OC)CC(C)C(=O)C(C)C2N(CCCCn3cnc(-c4cccnc4)c3)C(=O)OC12C (stereo unspecified) [Telithromycin]	7.25
CCCCn1cc(C(=O)c2cccc3ccccc23)c2ccc(O)cc21 [JWH-073-M-6-OH-Ind]	10.6
CN1CCC(=C2c3ccccc3CCc3sccc32)CC1 [Pizotifen]	7.86
O=C(c1ccc(F)c2ccccc12)c1cn(CCCCCF)c2ccccc12 [JWH-412-5F. F2201]	11.6
CN(Cc1cc(Br)cc(Br)c1N)C1CCCCC1 [Bromhexine]	10
COC(=O)C(NC(=O)c1nn(Cc2ccc(F)cc2)c2ccccc12)C(C)(C)C (stereo unspecified) [MDMB-FUBINACA]	11.3
CC(C)c1c(C(=O)Nc2ccccc2)c(-c2ccccc2)c(-c2ccc(F)cc2)n1CCC(O)CC(O)CC(=O)O (stereo unspecified) [Atorvastatin]	9.96
CCNC(C)C(=O)c1ccc(C)cc1 (stereo unspecified) [MEC (4-)]	4.74
CN1CCN(CCCN2c3ccccc3Sc3ccc(C(F)(F)F)cc32)CC1 [Trifluoperazine]	10.2
Nc1ccc(S(=O)(=O)Nc2cncc(Cl)n2)cc1 [Sulfaclozine]	5.45
CCNc1nc(NC(C)C)nc(SC)n1 [Ametryn]	9.16
O=C(Nc1ccc(C(=O)O)c(O)c1)c1ccccc1 [Salicylic acid-4-Benzamido]	5.47
COc1ccc(C(=O)c2cn(CCCCCO)c3ccccc23)cc1 [RCS-4-M-5-OH-Pentyl]	9.18

Structure (SMILES)	LC retention time [min]
Cc1cccc(OCC(O)CNC(C)C)c1 (stereo unspecified) [Toliprolol]	5.29
C=CC=CCC1=C(C)C(OC(=O)C2C(C=C(C)C)C2(C)C)CC1=O (stereo unspecified) [Pyrethrin I]	12.9
CC(C)(C)NCC(O)COc1nsnc1N1CCOCC1 (stereo unspecified) [Timolol]	4.88
CCCN(CCOc1c(Cl)cc(Cl)cc1Cl)C(=O)n1ccnc1 [Prochloraz]	11.2
CNC(=O)Oc1ccc(N(C)C)c(C)c1 [Aminocarb  (Metacil)]	5.15
CC(=O)N1CCN(c2ccc(OCC3COC(Cn4ccnc4)(c4ccc(Cl)cc4Cl)O3)cc2)CC1 (stereo unspecified) [Ketoconazole]	9.4
CC(Cc1ccc2c(c1)OCO2)N(C)C (stereo unspecified) [MDDMA]	4.08
CCn1cc(C(=O)O)c(=O)c2ccc(C)nc21 [Nalidixic acid]	7.06
Clc1ccccc1-c1nnc(-c2ccccc2Cl)nn1 [Clofentezine]	11.5
O=C1NC(=O)C2CC=CCC12 (stereo not drawn) [Tetrahydrophthalimide (cis-) (1.2.3.6-)]	4.37
CCc1cc2c(cc1CC)CC(NCC(O)c1ccc(O)c3[nH]c(=O)ccc13)C2 (stereo unspecified) [Indacaterol]	7.9
CC(C)[N+](C)(CCOC(=O)C1c2ccccc2Oc2ccccc21)C(C)C [Propantheline (I+)]	7.35
COc1ccc(C(=O)c2cn(CCCCC(=O)O)c3ccccc23)cc1 [RCS-4-M-5-COOH-Pentyl]	8.81
OCCN1CCN(CCCN2c3ccccc3Sc3ccc(C(F)(F)F)cc32)CC1 [Fluphenazine]	9.93
CC(N)C(=O)c1ccccc1 (stereo unspecified) [Cathinone]	3.59
COc1c(Cl)ccc(Cl)c1C(=O)O [Dicamba]	4.97
NCCCCC(NC(CCc1ccccc1)C(=O)O)C(=O)N1CCCC1C(=O)O (stereo unspecified) [Lisinopril]	3.98
CC12CCC(=O)C=C1CCC1C2C(=O)CC2(C)C(O)CCC12 (stereo unspecified) [11-Ketotestosterone]	7.9
CN1C(=O)CN=C(c2ccccc2F)c2cc(N)ccc21 [Flunitrazepam- 7-Amino]	5.41
